These results are taken from the NIST ThermoML archive (doi:10.1016/j.fluid.2018.06.013).

A short description of this series: activity coefficient (dimensionless); of the first substance listed, at infinite dilution; xn = mol fraction of the nth substance listed. The conditions noted are these: 100 kPa, Liquid, Chromatography, x1 = 0.

Each structure is given as a SMILES string. Numbers after ± are expanded uncertainties.

As for `Cc1ccccc1C` [1,2-dimethylbenzene] + CCCC[N+]1(C)CCCC1.N#CN=C=[N-], the activity coefficient by setting is: (313.15 K) 2.69 ± 0.28; (323.15 K) 2.75 ± 0.29; (343.15 K) 2.91 ± 0.31; (363.15 K) 3.1 ± 0.3; (373.15 K) 3.18 ± 0.33.

For `Cc1cccc(C)c1` [1,3-dimethylbenzene] + CCCC[N+]1(C)CCCC1.N#CN=C=[N-], the activity coefficient stood at 3.36 ± 0.35 (313.15 K); 3.47 ± 0.36 (323.15 K); 3.58 ± 0.38 (343.15 K); 3.74 ± 0.39 (363.15 K); 3.81 ± 0.4 (373.15 K).

For `Cc1ccc(C)cc1` [1,4-dimethylbenzene] + CCCC[N+]1(C)CCCC1.N#CN=C=[N-], the activity coefficient was 3.24 ± 0.34 (313.15 K); 3.24 ± 0.34 (323.15 K); 3.47 ± 0.36 (343.15 K); 3.63 ± 0.38 (363.15 K); 3.73 ± 0.39 (373.15 K).

As for `C1COCCO1` [1,4-dioxane] + CCCC[N+]1(C)CCCC1.N#CN=C=[N-], the activity coefficient is, setting by setting: (313.15 K) 0.909 ± 0.093; (323.15 K) 0.962 ± 0.098; (343.15 K) 1.05 ± 0.11; (363.15 K) 1.13 ± 0.12; (373.15 K) 1.17 ± 0.12.

Turning to `C=CCCCCCCCC` [1-decene] + CCCC[N+]1(C)CCCC1.N#CN=C=[N-], the activity coefficient (313.15 K) came out at 104 ± 11; the activity coefficient (323.15 K) was determined as 98.2 ± 10; the activity coefficient (343.15 K) came out at 89.4 ± 9.4; the activity coefficient (363.15 K) is 83.7 ± 8.8; the activity coefficient (373.15 K) is 78.7 ± 8.3.

As to `C=CCCCCC` [1-heptene] + CCCC[N+]1(C)CCCC1.N#CN=C=[N-], the activity coefficient reads like this: (313.15 K) 31.5 ± 3.3; (323.15 K) 30.4 ± 3.2; (343.15 K) 29.2 ± 3.1; (363.15 K) 27.8 ± 2.9; (373.15 K) 27.7 ± 2.9.

For `C#CCCCCC` [1-heptyne] + CCCC[N+]1(C)CCCC1.N#CN=C=[N-], the activity coefficient (313.15 K) stood at 5.76 ± 0.61; the activity coefficient (323.15 K) was found to be 5.95 ± 0.63; the activity coefficient (343.15 K) is 6.39 ± 0.67; the activity coefficient (363.15 K) was found to be 6.76 ± 0.71; the activity coefficient (373.15 K) turned out to be 6.92 ± 0.73.

`C#CCCCC` [1-hexyne] + CCCC[N+]1(C)CCCC1.N#CN=C=[N-]: the activity coefficient by setting is: (313.15 K) 3.81 ± 0.4; (323.15 K) 3.98 ± 0.42; (343.15 K) 4.32 ± 0.45; (363.15 K) 4.61 ± 0.48; (373.15 K) 4.77 ± 0.5.

Take `CCC[N+](=O)[O-]` [1-nitropropane] + CCCC[N+]1(C)CCCC1.N#CN=C=[N-]: the activity coefficient (313.15 K) was found to be 0.721 ± 0.075; the activity coefficient (323.15 K) is 0.74 ± 0.077; the activity coefficient (343.15 K) was found to be 0.789 ± 0.081; the activity coefficient (363.15 K) is 0.827 ± 0.085; the activity coefficient (373.15 K) came out at 0.838 ± 0.086.

Consider `C#CCCCCCC` [1-octyne] + CCCC[N+]1(C)CCCC1.N#CN=C=[N-], for which the activity coefficient worked out at 8.87 ± 0.93 (313.15 K); 9.03 ± 0.95 (323.15 K); 9.41 ± 0.99 (343.15 K); 9.79 ± 1 (363.15 K); 9.87 ± 1 (373.15 K).

`CCOC(C)(C)C` [2-ethoxy-2-methylpropane] + CCCC[N+]1(C)CCCC1.N#CN=C=[N-]: the activity coefficient is, setting by setting: (313.15 K) 17.2 ± 1.8; (323.15 K) 16.9 ± 1.8; (343.15 K) 16.9 ± 1.8; (363.15 K) 16.7 ± 1.8; (373.15 K) 16.1 ± 1.7.

On to `CCC(C)(C)OC` [2-methoxy-2-methylbutane] + CCCC[N+]1(C)CCCC1.N#CN=C=[N-], for which the activity coefficient is 9.56 ± 1 (313.15 K); 9.39 ± 0.99 (323.15 K); 9.65 ± 1 (343.15 K); 9.77 ± 1 (363.15 K); 9.93 ± 1 (373.15 K).

As to `COC(C)(C)C` [2-methoxy-2-methylpropane] + CCCC[N+]1(C)CCCC1.N#CN=C=[N-], the activity coefficient amounted to 6.25 ± 0.66 (313.15 K); 6.32 ± 0.66 (323.15 K); 6.55 ± 0.69 (343.15 K); 6.92 ± 0.73 (363.15 K); 7.15 ± 0.75 (373.15 K).

As to `CC(C)CO` [2-methyl-1-propanol] + CCCC[N+]1(C)CCCC1.N#CN=C=[N-], the activity coefficient is, setting by setting: (313.15 K) 0.872 ± 0.089; (323.15 K) 0.835 ± 0.086; (343.15 K) 0.785 ± 0.081; (363.15 K) 0.786 ± 0.081; (373.15 K) 0.764 ± 0.079.

`C=C(C)c1ccccc1` [(1-methylethenyl)benzene] + CCCC[N+]1(C)CCCC1.N#CN=C=[N-]: the activity coefficient is, setting by setting: (313.15 K) 2.2 ± 0.23; (323.15 K) 2.37 ± 0.25; (343.15 K) 2.67 ± 0.28; (363.15 K) 2.89 ± 0.3; (373.15 K) 3.02 ± 0.32.

Turning to `CC(C)=O` [acetone] + CCCC[N+]1(C)CCCC1.N#CN=C=[N-], the activity coefficient (313.15 K) was determined as 0.907 ± 0.093; the activity coefficient (323.15 K) turned out to be 0.91 ± 0.09; the activity coefficient (343.15 K) came to 0.978 ± 0.099; the activity coefficient (363.15 K) is 1.04 ± 0.11; the activity coefficient (373.15 K) amounted to 1.06 ± 0.11.

`CC#N` [acetonitrile] + CCCC[N+]1(C)CCCC1.N#CN=C=[N-]: the activity coefficient amounted to 0.659 ± 0.069 (313.15 K); 0.668 ± 0.07 (323.15 K); 0.693 ± 0.072 (343.15 K); 0.72 ± 0.08 (363.15 K); 0.728 ± 0.076 (373.15 K).

For `c1ccccc1` [benzene] + CCCC[N+]1(C)CCCC1.N#CN=C=[N-], the activity coefficient runs as follows: (313.15 K) 1.38 ± 0.14; (323.15 K) 1.4 ± 0.14; (343.15 K) 1.49 ± 0.15; (363.15 K) 1.6 ± 0.2; (373.15 K) 1.62 ± 0.17.

On to `CCCCO` [butan-1-ol] + CCCC[N+]1(C)CCCC1.N#CN=C=[N-], for which the activity coefficient was 0.897 ± 0.092 (313.15 K); 0.873 ± 0.089 (323.15 K); 0.844 ± 0.087 (343.15 K); 0.836 ± 0.086 (363.15 K); 0.814 ± 0.084 (373.15 K).

On to `CCC(C)O` (stereo not given) [butan-2-ol] + CCCC[N+]1(C)CCCC1.N#CN=C=[N-], for which the activity coefficient came to 0.875 ± 0.09 (313.15 K); 0.888 ± 0.091 (323.15 K); 0.859 ± 0.088 (343.15 K); 0.869 ± 0.089 (363.15 K); 0.881 ± 0.09 (373.15 K).

As to `CCCC=O` [butanal] + CCCC[N+]1(C)CCCC1.N#CN=C=[N-], the activity coefficient (313.15 K) was 1.4 ± 0.14; the activity coefficient (323.15 K) was found to be 1.46 ± 0.15; the activity coefficient (343.15 K) was determined as 1.53 ± 0.16; the activity coefficient (363.15 K) is 1.62 ± 0.17; the activity coefficient (373.15 K) turned out to be 1.67 ± 0.17.

With `C1=CCCCC1` [cyclohexene] + CCCC[N+]1(C)CCCC1.N#CN=C=[N-], the activity coefficient was found to be 9.06 ± 0.95 (313.15 K); 8.78 ± 0.92 (323.15 K); 8.65 ± 0.91 (343.15 K); 8.48 ± 0.89 (363.15 K); 8.26 ± 0.87 (373.15 K).

Consider `CC(C)OC(C)C` [diisopropyl ether] + CCCC[N+]1(C)CCCC1.N#CN=C=[N-], for which the activity coefficient reads like this: (313.15 K) 19.4 ± 2; (323.15 K) 18.8 ± 2; (343.15 K) 19.1 ± 2; (363.15 K) 18.6 ± 2; (373.15 K) 18.3 ± 1.9.

On to `CCCOCCC` [dipropyl ether] + CCCC[N+]1(C)CCCC1.N#CN=C=[N-], for which the activity coefficient was 17.9 ± 1.9 (313.15 K); 17 ± 1.8 (323.15 K); 16.8 ± 1.8 (343.15 K); 16.6 ± 1.7 (363.15 K); 16.6 ± 1.7 (373.15 K).

In the case of `CCO` [ethanol] + CCCC[N+]1(C)CCCC1.N#CN=C=[N-], the activity coefficient (313.15 K) amounted to 0.533 ± 0.058; the activity coefficient (323.15 K) was 0.525 ± 0.057; the activity coefficient (343.15 K) stood at 0.52 ± 0.06; the activity coefficient (363.15 K) stood at 0.519 ± 0.057; the activity coefficient (373.15 K) came to 0.521 ± 0.057.

Take `CCOC(C)=O` [ethyl acetate] + CCCC[N+]1(C)CCCC1.N#CN=C=[N-]: the activity coefficient is, setting by setting: (313.15 K) 2.35 ± 0.25; (323.15 K) 2.36 ± 0.25; (343.15 K) 2.48 ± 0.26; (363.15 K) 2.57 ± 0.27; (373.15 K) 2.61 ± 0.27.

On to `CCc1ccccc1` [ethylbenzene] + CCCC[N+]1(C)CCCC1.N#CN=C=[N-], for which the activity coefficient is, setting by setting: (313.15 K) 3.32 ± 0.35; (323.15 K) 3.43 ± 0.36; (343.15 K) 3.52 ± 0.37; (363.15 K) 3.7 ± 0.4; (373.15 K) 3.77 ± 0.4.

For the molecule `CCCCCCC` [heptane] + CCCC[N+]1(C)CCCC1.N#CN=C=[N-], the activity coefficient reads like this: (313.15 K) 79.1 ± 8.3; (323.15 K) 74.6 ± 7.9; (343.15 K) 66.5 ± 7; (363.15 K) 60.2 ± 6.3; (373.15 K) 53.6 ± 5.6.

For the molecule `C=CCCCC` [hex-1-ene] + CCCC[N+]1(C)CCCC1.N#CN=C=[N-], the activity coefficient (313.15 K) is 21 ± 2.2; the activity coefficient (323.15 K) was found to be 20.3 ± 2.1; the activity coefficient (343.15 K) was found to be 19.3 ± 2; the activity coefficient (363.15 K) is 18.4 ± 1.9; the activity coefficient (373.15 K) is 18.6 ± 2.

As to `CO` [methanol] + CCCC[N+]1(C)CCCC1.N#CN=C=[N-], the activity coefficient (313.15 K) came out at 0.336 ± 0.042; the activity coefficient (323.15 K) stood at 0.333 ± 0.041; the activity coefficient (343.15 K) was 0.339 ± 0.042; the activity coefficient (363.15 K) was determined as 0.348 ± 0.043; the activity coefficient (373.15 K) came out at 0.353 ± 0.043.

Consider `CCCC(=O)OC` [methyl butanoate] + CCCC[N+]1(C)CCCC1.N#CN=C=[N-], for which the activity coefficient (313.15 K) turned out to be 2.92 ± 0.31; the activity coefficient (323.15 K) stood at 3 ± 0.32; the activity coefficient (343.15 K) was determined as 3.16 ± 0.33; the activity coefficient (363.15 K) was determined as 3.25 ± 0.34; the activity coefficient (373.15 K) was 3.34 ± 0.35.

`CCC(=O)OC` [methyl propanoate] + CCCC[N+]1(C)CCCC1.N#CN=C=[N-]: the activity coefficient (313.15 K) was 2.07 ± 0.22; the activity coefficient (323.15 K) stood at 2.09 ± 0.22; the activity coefficient (343.15 K) worked out at 2.22 ± 0.23; the activity coefficient (363.15 K) is 2.33 ± 0.24; the activity coefficient (373.15 K) turned out to be 2.4 ± 0.25.
